In US20210255193A1, “LYSINE REACTIVE PROBES AND USES THEREOF” (The Scripps Research Institute, priority 2017, published 2021):
Entries after “also recorded” stand apart in the source; their conditions may differ.

Assays:
Assay in all cases: competitive gel-based ABPP, apparent IC50
Type in all cases: binding
PNPO = target: T1, PNPO (Homo sapiens, UniProt Q9NVS9); settings: read-out: apparent IC50, blockade of probe labeling of K100 in PNPO
T1 construct: Flag; expressed in transfected cells; host or cells: HEK 293T, transient transfection, soluble lysate
T1 sequence (Q9NVS9 1-261): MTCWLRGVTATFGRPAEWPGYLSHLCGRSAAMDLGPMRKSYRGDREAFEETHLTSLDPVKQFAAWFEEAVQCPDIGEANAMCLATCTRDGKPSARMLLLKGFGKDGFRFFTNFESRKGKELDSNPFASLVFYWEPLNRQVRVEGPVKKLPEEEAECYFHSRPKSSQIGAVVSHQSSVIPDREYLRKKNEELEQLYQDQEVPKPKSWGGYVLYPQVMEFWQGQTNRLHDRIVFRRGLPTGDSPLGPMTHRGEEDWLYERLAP
Procedure: (§1) Recombinant expression of proteins by transient transfection. HEK 293T cells were grown to 50% confluency in 10 ml DMEM supplemented with 10% fetal bovine serum (FBS), penicillin, streptomycin and glutamine in 10 cm tissue culture dishes. 3 μg of DNA was diluted in 500 μL DMEM and 30 μL of PEI (MW 40,000, 1 mg ml^−1, Polysciences) were added. The mixture was incubated at room temperature for 30 min and added dropwise to the cells. Cells were grown for 48 h at 37° C. with 5% CO2. Cells were washed with cold PBS, scraped with cold PBS and cell pellets were isolated by centrifugation (1,400 g, 3 min, 4° C.), and stored at −80° C. until use. Cell pellets were resuspended in PBS, lysed by sonication and fractionated (100,000 g, 45 min) to yield soluble and membrane fractions. The soluble fraction was adjusted to a final protein concentration of 1 mg ml^−1 for gel-based ABPP experiments.
(§2) Competitive gel-based ABPP and apparent IC50 values. 50 μl of soluble proteome (1 mg ml^−1) expressing the indicated protein were treated with fragment electrophiles (1 μl of 50× stock solution in DMSO) at ambient temperature for 1 h. The indicated probe (fluorophore or alkyne-containing, 1 μl of a 500 μM solution, final concentration=10 μM) was then added and allowed to react for an additional 1 h. CuAAC and in-gel fluorescence analysis were performed as described above. For quantification of inhibition and apparent IC50 determination, the percentage of labeling was determined by quantifying the integrated optical intensity of the bands using ImageLab 5.2.1 software (BioRad). Nonlinear regression analysis was used to determine the IC50 values from a dose-response curve generated using GraphPad Prism 7.

NUDT2 = target: T2, NUDT2 (Homo sapiens, UniProt P50583)
T2 construct: expressed in transfected cells; host or cells: HEK 293T, transient transfection, soluble lysate; synthesized gene (IDT)
T2 sequence (P50583 whole entry): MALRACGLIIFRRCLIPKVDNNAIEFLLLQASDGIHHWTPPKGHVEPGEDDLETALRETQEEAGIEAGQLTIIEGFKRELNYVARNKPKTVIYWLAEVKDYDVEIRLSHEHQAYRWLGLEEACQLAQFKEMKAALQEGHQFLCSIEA
Procedure: as §1, §2

PFKP = target: T3, PFKP (Homo sapiens, UniProt Q01813); settings: read-out: apparent IC50, blockade of probe labeling of recombinant PFKP
T3 construct: Flag; expressed in transfected cells; host or cells: HEK 293T, transient transfection, soluble lysate; cDNA clone 5180268 (Dharmacon)
T3 sequence (Q01813 1-784): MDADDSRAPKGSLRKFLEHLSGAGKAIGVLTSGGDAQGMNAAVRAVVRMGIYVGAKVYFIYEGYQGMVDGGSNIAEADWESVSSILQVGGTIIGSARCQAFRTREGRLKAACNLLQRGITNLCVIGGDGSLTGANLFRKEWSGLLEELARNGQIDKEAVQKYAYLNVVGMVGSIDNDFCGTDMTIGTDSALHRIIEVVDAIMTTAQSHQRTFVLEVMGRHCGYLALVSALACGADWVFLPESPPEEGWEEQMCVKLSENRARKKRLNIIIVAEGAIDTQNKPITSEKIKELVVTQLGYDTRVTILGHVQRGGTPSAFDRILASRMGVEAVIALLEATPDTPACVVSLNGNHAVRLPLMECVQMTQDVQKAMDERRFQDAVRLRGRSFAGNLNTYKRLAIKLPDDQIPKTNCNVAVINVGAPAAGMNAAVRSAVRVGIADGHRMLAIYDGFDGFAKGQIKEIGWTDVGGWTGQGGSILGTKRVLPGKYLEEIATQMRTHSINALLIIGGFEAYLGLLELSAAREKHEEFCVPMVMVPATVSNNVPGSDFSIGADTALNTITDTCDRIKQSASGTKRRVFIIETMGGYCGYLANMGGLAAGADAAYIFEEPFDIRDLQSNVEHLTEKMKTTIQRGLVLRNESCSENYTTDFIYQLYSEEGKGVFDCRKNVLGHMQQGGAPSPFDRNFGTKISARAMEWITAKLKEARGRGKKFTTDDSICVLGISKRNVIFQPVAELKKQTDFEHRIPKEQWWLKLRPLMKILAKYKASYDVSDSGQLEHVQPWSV
Procedure: as §1, §2

[1] = target: T4, Flag-tagged SIN3A (a.a. 1-400) (Homo sapiens, UniProt Q96ST3); settings: probe 17, HEK293T cell lysates
T4 construct: expressed in transfected cells; host or cells: HEK 293T, transient transfection, lysate
T4 sequence (Q96ST3 1-400): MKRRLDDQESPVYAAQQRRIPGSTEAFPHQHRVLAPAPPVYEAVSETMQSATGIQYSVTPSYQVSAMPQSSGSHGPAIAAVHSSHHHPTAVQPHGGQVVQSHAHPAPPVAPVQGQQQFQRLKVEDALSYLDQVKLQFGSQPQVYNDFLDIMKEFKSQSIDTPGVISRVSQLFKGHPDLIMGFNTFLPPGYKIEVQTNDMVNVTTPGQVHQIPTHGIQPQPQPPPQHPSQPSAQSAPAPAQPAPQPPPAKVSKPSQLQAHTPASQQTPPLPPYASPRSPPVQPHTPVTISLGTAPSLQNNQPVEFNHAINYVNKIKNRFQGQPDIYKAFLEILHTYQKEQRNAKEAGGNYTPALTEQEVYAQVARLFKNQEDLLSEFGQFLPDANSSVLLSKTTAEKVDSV
Procedure: as §1, §2

In the case of `O=C(CCc1cn(-c2ccccc2)nc1-c1ccccc1)Oc1c(F)c(F)c(F)c(F)c1F` [fragment 19, Pentafluorophenyl 3-(1,3-diphenyl-1H-pyrazol-4-yl)propanoate], the IC50 (PNPO) is reported as 3000 nM.
For `COC(=O)NC(=NC(=O)OCC1c2ccccc2-c2ccccc21)n1cccn1` [fragment 49, N-Methoxycarbonyl-N′-9-fluorenylmethoxycarbonyl-pyrazole-1-carboxamidine], the “blockade of probe 1-labeling of K89 in NUDT2” value (NUDT2; FIG. 11G) was “quantitatively blocked” and the IC50 (NUDT2; gel-based ABPP, read-out: apparent IC50, blockade of probe labeling of NUDT2) was 2000 nM.
`O=C(Oc1c(F)c(F)c(F)c(F)c1F)C(c1ccccc1)c1ccccc1` [fragment 20, Pentafluorophenyl 2,2-diphenylacetate] showed an IC50 (PFKP) of 2000 nM.
With `O=C(Oc1c(F)c(F)c(F)c(F)c1F)c1cc(C(F)(F)F)cc(C(F)(F)F)c1` [fragment 21, Pentafluorophenyl 3,5-bis(trifluoromethyl)benzoate] the “blockade of probe labeling of K155” value [1] was “site-specific and complete blockade of probe labeling of K155; also recorded: blocks probe 17 labeling of SIN3A at K155 in a concentration-dependent manner” and the IC50 ([1]; read-out: apparent IC50, blockade of probe labeling of K155) was 5000 nM.
